Experimental data published in patent publication EP2759295A1, “Foam cell specific Liver X Receptor (LXR) alpha agonist, SIRT1 inhibitors as well as p300 inhibitors as pharmaceutically active agents” (Max-Planck-Gesellschaft zur Förderung der Wissenschaften …, priority 2013, dated 2014).
“Also recorded” adds a separate entry of the source.

How the values were obtained:
[1] = target: T1, LXRβ ligand binding domain (LBD) (Homo sapiens, UniProt P55055); assay: dual luciferase reporter gene assay with LXRβ ligand binding domain in HEK-293 cells; assay type: cell-based
T1 construct: expressed in transfected cells; host or cells: HEK-293
T1 sequence (P55055 154-460 limits assumed): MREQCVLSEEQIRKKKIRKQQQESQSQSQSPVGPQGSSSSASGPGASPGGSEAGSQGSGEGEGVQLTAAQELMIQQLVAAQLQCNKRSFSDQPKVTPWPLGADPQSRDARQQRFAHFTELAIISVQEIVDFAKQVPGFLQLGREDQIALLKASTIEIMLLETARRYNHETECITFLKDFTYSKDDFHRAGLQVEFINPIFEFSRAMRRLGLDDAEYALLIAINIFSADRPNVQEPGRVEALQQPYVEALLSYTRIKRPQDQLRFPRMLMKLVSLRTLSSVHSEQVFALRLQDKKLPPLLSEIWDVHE
Description: Selection and amplification were performed in E-coli cells. Purification of the plasmids was performed with a plasmid purification kit (Qiagen). For transfection HEK-293 cells were plated in 96-well plates (TPP) at a density of 3.5 x 10^4 cells/well for 24 h. To investigate the ligand binding on LXRα ligand binding domain, 0.04 ng of renilla luciferase coding plasmide pGL4.75 (Promega), 0.04 ng of LXRα-LBD/GAL4-DBD plasmide and 80 ng of firefly luciferase coding plasmide pGL4.31 (Promega) were used in a total volume of 200 µL for each well. In LXRβ binding assay 40 ng of LXRβ-LBD/GAL4-DBD plasmide were applied in each transfection mix. Transfection was carried out for 4 h with Lipofectamine 2000 Transfection Reagent (Invitrogen) in Opti-MEM medium (Invitrogen). Ligand treatment was performed at different concentrations for 24 h. For lysis and detection dual-luciferase reporter gene assay system (Promega) and POLARstar Omega (BMG LABTECH) were used.

[2] = test system: THP-1 macrophages; assay: qPCR gene expression of LXRα target genes in THP-1 macrophages; assay type: cell-based, human
Description: (§1) For generating macrophages differentiation was induced by 10^-8 M Phorbol 12-myristate 13-acetate (PMA) (Sigma-Aldrich) for 48 h. Ligand treatment of macrophages was performed for further 24 h. To induce foam cell formation macrophages were treated for additional 48 h with 100 µg/mL modified human oxidized low density lipoprotein (oxLDL) obtained from Source BioScience (RP-048). Ligand treatment was performed simultaneously with foam cell formation. Cholesterol loading and treatment was controlled with Oil Red O staining (Alfa Aeser). To investigate ligand induced effects on cell proliferation of THP-1 macrophages CellTiter-Glo Luminescent Cell Viability Assay (Promega) was utilized.
(§2) Total RNA isolation and purification was performed by using the RNeasy Mini Kit (QIAGEN) and RNase-Free DNase Set (QIAGEN). cDNA was generated by reverse transcription using the High Capacity cDNA Reverse Transcription Kit (Applied Biosystems). Gene expression was quantified using the SYBR Green PCR Master Mix (Applied Biosystems) and ABI 7900HT Fast Real Time PCR System (Applied Biosystems). In each reaction 0.8 ng/µL cDNA and 0.2 µM primers were used. Gene expression was calculated with the ΔΔCt-method. β-Actin was used for normalisation.

[3] = test system: foam cells; assay: qPCR gene expression of LXRα target genes in foam cells; assay type: cell-based, human; details: 10 µM
Description: as §1, §2

[4] = test system: foam cells; assay: microarray genome-wide gene expression and GSEA in foam cells; assay type: cell-based, human; details: 10 µM
Description: Microarray analyses were performed according to instructions of Illumina's TotalPrep RNA Amplification Kit followed by hybridisation on HumanHT-12 v3 or HumanHT-12 v4 Expression BeadChips (illumina). Data analysis was performed with GenomeStudio […].1 (illumina). Differential expression analysis was performed on background-subtracted data with cubic spline normalization and Benjamini-Hochberg FDR correction. […] Gene expression data were submitted in MIAME-compliant form to the NCBI Gene Expression Omnibus database (GSE39079). Bead array data were validated by quantitative real-time PCR. The Gene Distance Matrix was conducted in Euclidean space using the MeV 4.3 software tool [[…]. et al. Biotechniques (2003), 34, 374-378]. Gene Set Enrichment Analysis (GSEA) was performed as described elsewhere [Subramanian A. et al. Proc. Natl. Acad. Sci. […] Enrichment of pathways was tested using the Reactome (v3.0) and the KEGG (v3.0) database from the Molecular Signature Database (MSigDB). Heatmaps were carried out with […]. et al. BMC Bioinformatics (2012), 11, 121]. For presentation of treatment effects in the heatmap, the pathway normalized enrichment score (NES) was adjusted with the appropriate FDR as follows: adjustedNES = (1-FDR) x NES.

[5] = test system: macrophages; assay: triglyceride content in macrophages (Triglyceride Assay Kit); assay type: cell-based, human; details: 10 µM, 48 h
Description: THP-1 monocytes were plated out into 24-well plates (Nunc) at a density of 2 x 10^5 cells/well. After differentiation and treatment cells were lysed with 100 µL lysis buffer (PBS, 0.25 M NaCl, 1% Triton X-100). Total and free cholesterol were determined using the colorimetric enzymatic Amplex Red Cholesterol Assay Kit (Invitrogen). Triglycerides were quantified by Triglyceride Assay Kit (BioVision). For normalisation protein content was determined with Pierce 660 nm Protein Assay Reagent (Thermo Scientific).

## C(=C\c1ccc(OCC2CO2)cc1)/c1ccccc1 (stereo not shown) [compound 1, 2-[[4-[(E)-styryl]phenoxy]-methyl]oxirane]
[1]
  Transcriptional activation of LXRβ: does not activate the LXRβ subtype
[2]; 10 µM
  expression of LXRα target genes (LXRα, SREBF1, ABCA1, APOE): only marginally activated LXR-target genes in macrophages
[2]; in the presence of 1 µM T09
  ABCA1 expression: additive effects
[3]
  expression of LXRα target genes (LXRα, SREBF1, ABCA1, APOE): strongly in foam cells; also recorded: potent target gene expression similar to T09; also recorded: up-regulation of SREBF1 mRNA
[4]
  Lipid metabolism processes (gene set enrichment): comparably up-regulated
  triacylglyceride biosynthesis (transcriptional regulation): not regulated
[5]
  triglyceride level: stayed unchanged
